Consider 7 molecules from US4908380A, “Pharmaceutical compositions” (Imperial Chemical Industries plc, priority 1986, dated 1990).

For assay [1], the system named is thromboxane receptor. Kind of assay: Test (a): rabbit or rat aortal strip, TXA2 antagonism (agonist TXA2 or U46619). The settings on record: ±0.05. The class given is cell-based. The source says: It is believed that TXA2 exerts its physiological action through the thromboxane receptor, at which receptor various other prostanoid contractile substances derived from arachidonic acid, such as prostaglandins H2, F2 alpha and prostaglandin D2, can exert contractile effects. There are two principal ways in which the effects of TXA2 (and also of prostaglandins H2, F2 alpha and/or D2) can be ameliorated. […] The second way is to administer a pharmacological agent which inhibits one or more of the enzymes involved in the production of TXA2 and in particular, which inhibits the enzyme known as thromboxane synthetase (TXA2 synthetase). Such an agent is said to be a TXA2 synthetase inhibitor.
As stated earlier, the novel compounds of formula I are antagonists of one or more of the actions of TXA2, for example certain of its actions on blood platelets, the vasculature and/or the lung.
(a) The rabbit aortal strip model devised by Piper and Vane (Nature, 1969, 223, 29-35) or the rat aortal strip model developed by Kennedy et alia (Prostaglandins, 1982, 24, 667-689), using as agonist a freshly prepared sample of TXA2, generated by addition of arachidonic acid (25 μg) to citrated, platelet rich rabbit plasma (250 μl) and allowing the mixture to aggregate fully over 90 seconds before use; alternatively the TXA2 mimetic agent known as U46619 (described by R. L. Jones et alia in "Chemistry, Biochemistry and Pharmacological Activity of Prostanoids" edited by S. M. Roberts and F. Scheinmann, at page 211; Pergamon Press, 1979) may be used as the agonist; and
Using the above test procedures (a)-(c), the following representative results have been obtained with the compounds of formula II wherein (i) X^1 is 2-chloro, (ii) X^1 is 2-cyano; or (iii) X^1 is 4-cyano, respectively: […]

Assay [2] has as its system U46619 induced hypertension. Kind of assay: Test (d): U46619 induced hypertension in anaesthetised male rats (Alderley Park strain). The class given is in vivo, rat. The settings on record: 1 hour after oral dose of 0.5 mg/kg. Here is the method: (d) Male rats (Alderley Park strain) are anaesthetised with sodium pentobarbital and blood pressure is monitored at the carotid artery. The TXA2 mimetic agent U46619 is administered intravenously at 5 μg/kg via the jugular vein to produce 20-30 mm/Hg (2640-3970 pascal) increase in systolic blood pressure. The process is repeated twice to ensure adequacy of response. A test compound is then administered either intravenously (via the jugular vein) or orally (via a cannula) directly into the stomach and the animal challenged with U46619, five minutes after dosing with test compound and then successively every ten minutes until the hypertensive effect of U46619 is no longer blocked.

The test system of assay [3] is arachidonic acid induced aggregation of human platelets. In words: Arachidonic acid induced aggregation of human platelets in vitro. The class given is cell-based. The following applies: Platelet, read-out: % Inhibition of vehicle control. From the text: The beneficial effects of combining one of the novel TXA2 antagonists of formula I defined hereinabove with a TXA2 synthetase inhibitor may be illustrated in vitro, for example by evaluating their effects in inhibiting arachidonic acid induced aggregation of human platelets, using standard procedures well known in the art. Thus, for example, the following results were obtained with the TXA2 antagonist described hereinafter in Ex. 2, 6 and 20 (Compound A) and the TXA2 synthetase inhibitor known as dazoxiben (Compound B): […]

Assay [4] relates to U46619 induced bronchoconstriction. In words: Test (c): U46619 induced bronchoconstriction in Konzett-Rossler anaesthetised guinea-pig. The assay is classed as in vivo. The following applies: 2 hours after oral dosing at 0.05 mg/kg. The source says:
(c) a bronchoconstriction test involving measuring the inhibition by a test compound of the bronchoconstriction induced in the Konzett-Rossler, anaesthetised guinea-pig model (as modified by Collier and James, Brit.J.Pharmacol., 1967, 30, 283-307) by intravenous administration of the TXA2 mimetic agent, U46619 and involving:
(i) obtaining a cumulative dose-response curve to U46619 induced bronchoconstriction by intravenous administration of constant volumes of increasing concentrations of U46619 (0.2-4 μg/kg) in physiological saline solution and expressing bronchoconstriction as the maximum of that theoretically obtainable with no air flow to the test animal;
(ii) generating a cumulative dose-response curve to U46619 induced bronchoconstriction at 30 minute intervals for 3 hours after oral dosing of test compound; and
(iii) calculating a dose-ratio for the test compound (that is the ratio of concentration of U46619 required to cause 50% bronchoconstriction in the presence and absence of test compound) indicating the potency of TXA2 antagonism.

Assay [5] relates to diamondback moths. Kind of assay: Catches of diamondback moths (lures).

Usually pA2 stands for a measure of antagonist potency on a negative log scale. A lower pA2 goes with lower antagonist potency. By inhibition is commonly meant the change of the read-out against control, counted positive when it falls. As to `O=C(O)CC/C=C\C[C@@H]1CO[C@H](c2ccccc2Cl)O[C@@H]1c1ccccc1O` (relative stereo) [(i), 4(Z)-6-([2,4,5-cis]-2-o-chlorophenyl-4-o-hydroxyphenyl-1,3-dioxan-5-yl)hexenoic acid], the pA2 in assay [1] turned out to be 8.02. Moreover, the “inhibition of U46619 induced hypertension” value in assay [2] is given as more than 80%. Further, the inhibition at 0.001 µM in assay [3] (A at 10^-9 M) is 2.2 ± 0.8%.

For the molecule `N#Cc1ccccc1[C@H]1OC[C@@H](C/C=C\CCC(=O)O)[C@@H](c2ccccc2O)O1` (relative stereo) [(ii), 4(Z)-6-([2,4,5-cis]-2-o-cyanophenyl-4-o-hydroxyphenyl-1,3-dioxan-5-yl)hexenoic acid], the pA2 in assay [1] was determined as 8.09. Moreover, the dose ratio in assay [4] is more than 32. Further, the “inhibition of U46619 induced hypertension” value in assay [2] was more than 80%.

In assay [1], `N#Cc1ccc([C@H]2OC[C@@H](C/C=C\CCC(=O)O)[C@@H](c3ccccc3O)O2)cc1` (relative stereo) [(iii)] yielded a pA2 of 7.45. In addition, the dose ratio in assay [4] is more than 350. In addition, the “inhibition of U46619 induced hypertension” value in assay [2] is listed as more than 40%.

Turning to `O=C(O)CCC/C=C\C[C@@H]1CO[C@H](c2ccccc2Cl)O[C@@H]1c1ccccc1` (relative stereo) [(iv), 5(Z)-7-([2,4,5-cis]-2-o-chlorophenyl-4-phenyl-1,3-dioxan-5-yl)heptenoic acid, reference compound], in assay [1], the pA2 is reported as 6.22.

`N#Cc1ccc([C@H]2OC[C@@H](C/C=C\CCCC(=O)O)[C@@H](c3ccccc3)O2)cc1` (relative stereo) [(v), reference compound]: the pA2 in assay [1] turned out to be 5.65.

Take `O=C(O)c1ccc(OCCn2ccnc2)cc1` [B]: the inhibition at 100 µM in assay [3] (B at 10^-4 M) amounted to 32.2 ± 16.3%. Besides, the inhibition at 10 µM in assay [3] (B at 10^-5 M) was found to be 4.5 ± 1.8%.

On to `CCCC/C=C\CCCCCCCCCCOC(C)=O` [HLA, ( --Z)-11-hexadecenyl acetate], for which, in assay [5] (week 1), the “Weekly catch week 1” value worked out at 0. The “Weekly catch week 2” value in assay [5] (week 2) was 1. Also, in assay [5] (week 3), the “Weekly catch week 3” value is 5. Also, the “Weekly catch week 4” value in assay [5] (week 4) amounted to 3.
